Measurements from patent publication US11413278B2, “Compounds and methods for promoting stress resistance” (priority 2015, dated 2022).
Entries after “also recorded” stand apart in the source; their conditions may differ. Where two headings read alike, the source gives them in different places.

Experiments:
[1] = tested on: PC12 cells expressing poly(Q)103-Htt-EGFP; test: Poly(Q) toxicity & viability analysis (cellular model of Huntington's disease); type: cell-based, rat; conditions: for M = Huntington's poly-Q toxicity attenuation: score; for K = Huntington's poly-Q toxicity attenuation: summary score
Outline: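 Readout is CellTiter-Glo ATP content measured after 48 hrs. Cells are a PC12 line stably expressing inducible poly(Q)103-Htt-EGFP, where induction produces toxic aggregates.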

[2] = tested on: HTB-178 lung tumor cells (EGFR+, PIK3CA+, RB1−, TP53−); test: Killing effects on HTB-178 tumor cells; type: cell-based, human; conditions: for Potential killing effects on HTB-178 tumor cells, 1st: Assay 1(y), at 10 uM; for Assay 21: Potential killing effects on HTB-178 tumor cells: 10 uM, YES/NO
[3] = tested on: FOXO3; test: qPCR analysis of FOXO3-regulated genes; type: cell-based, human; conditions: for fold induction at 10 µM: Homo sapiens; for K = Sestrin induction: score
Outline: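 FOXO3 target-gene expression quantified by qPCR normalised to B2M, PPIA and GAPDH, in WI-38 cells after 24 h exposure to 10 μM compound. Some runs used cells first transfected 36 h with 10 nM FOXO3 or NRF2 siRNA and replated ~24 h before dosing.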

[4] = tested on: WI-38 cells
Experimental: WI-38 cells were seeded on 384-well plates for 24 hrs and then incubated with small molecules for 24 hrs. […] Images were collected on an INCell Analyzer 2000 (GE) and analyzed with the Developer software.

[5] = target: T1, human PARP1 (Homo sapiens, UniProt P09874); test: PARP inhibitor assay (HT Fluorescent Homogeneous PARP Inhibition Assay Kit); type: biochemical; conditions: score
T1 construct: purchased Trevigen
Outline: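 Compounds (10 μM final) incubated 30 min, room temperature, dark, with human PARP1, nicotinamide adenine dinucleotide and activated DNA. Fluorescent signal generated by 1 hr cycling with diaphorase and resazurin, then reaction stopped.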

[6] = WI-38 cells, 10 μM, 24 hrs, n=4, qPCR normalized by B2M, read-out: DDB1 Normalized fold change
[7] = WI-38 cells, 10 μM, 24 hrs, n=4, qPCR normalized by B2M, read-out: GADD45A Normalized fold change
[8] = WI-38 cells, 10 μM, 24 hrs, n=4, qPCR normalized by B2M, read-out: SESN1 Normalized fold change
[9] = qPCR, WI-38 cells, 10 μM, n=4, 24 hrs, normalized by B2M, read-out: CAT Normalized fold change
[10] = qPCR, WI-38 cells, 10 μM, n=4, 24 hrs, normalized by B2M, read-out: SOD2 Normalized fold change
[11] = qPCR, WI-38 cells, 10 μM, n=4, 24 hrs, normalized by B2M, read-out: TXNIP Normalized fold change
[12] = no H2O2 stress, 10 uM, negative control 0.41% ± 0.23%
[13] = 10 μM, 24 hrs, WI-38 cells, qPCR, normalized to B2M, n = 4
[14] = WI-38 cells, 10 μM, 24 hrs, n=4, qPCR normalized by B2M
[15] = fold change, qPCR, WI-38 cells, 10 μM, 24 hrs
[16] = qPCR, WI-38 cells, 10 μM, n=4, 24 hrs, normalized by B2M

T1 sequence (P09874 whole entry): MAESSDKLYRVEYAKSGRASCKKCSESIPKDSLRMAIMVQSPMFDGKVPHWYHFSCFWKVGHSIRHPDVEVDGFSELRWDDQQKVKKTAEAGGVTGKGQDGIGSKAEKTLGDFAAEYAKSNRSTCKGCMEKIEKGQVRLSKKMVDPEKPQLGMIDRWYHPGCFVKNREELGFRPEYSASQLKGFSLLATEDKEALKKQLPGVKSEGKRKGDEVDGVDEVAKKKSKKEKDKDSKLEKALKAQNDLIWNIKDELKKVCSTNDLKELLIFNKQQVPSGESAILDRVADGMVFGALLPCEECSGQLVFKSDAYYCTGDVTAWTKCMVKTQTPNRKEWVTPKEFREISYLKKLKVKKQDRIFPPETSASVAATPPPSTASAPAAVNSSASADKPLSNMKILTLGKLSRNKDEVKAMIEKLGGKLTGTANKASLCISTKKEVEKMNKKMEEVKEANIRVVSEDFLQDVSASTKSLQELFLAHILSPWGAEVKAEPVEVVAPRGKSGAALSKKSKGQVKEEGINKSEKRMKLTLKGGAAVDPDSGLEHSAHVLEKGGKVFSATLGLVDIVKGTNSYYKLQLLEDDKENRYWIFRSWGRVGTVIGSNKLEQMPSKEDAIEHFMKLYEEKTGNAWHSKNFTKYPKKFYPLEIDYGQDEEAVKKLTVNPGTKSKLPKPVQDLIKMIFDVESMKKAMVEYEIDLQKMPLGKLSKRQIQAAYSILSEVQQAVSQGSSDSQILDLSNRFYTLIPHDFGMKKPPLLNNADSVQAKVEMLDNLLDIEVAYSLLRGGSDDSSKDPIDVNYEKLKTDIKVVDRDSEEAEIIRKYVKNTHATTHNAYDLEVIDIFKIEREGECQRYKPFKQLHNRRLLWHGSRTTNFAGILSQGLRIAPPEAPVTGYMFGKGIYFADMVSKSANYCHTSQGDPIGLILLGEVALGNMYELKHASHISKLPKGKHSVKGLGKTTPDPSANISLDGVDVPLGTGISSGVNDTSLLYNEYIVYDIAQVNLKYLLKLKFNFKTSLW

CCc1ccc(Oc2nc3ccccn3c(=O)c2/C=C(\C#N)C(=O)NC2CCCCC2)cc1 [Gr-5A]
M = Huntington's poly-Q toxicity attenuation [1]: 0
K = Huntington's poly-Q toxicity attenuation [1]: 0
Potential killing effects on HTB-178 tumor cells, 1st [2]: YES;
E = Potential FOXO3 Activation ([3]; 2-point score): 0
fold induction at 10 µM [3, 6]: 1.2
fold induction at 10 µM [3, 7]: 0.841
fold induction at 10 µM [3, 8]: 1.38
fold induction at 10 µM [3, 9]: 1.17
fold induction at 10 µM [3, 10]: 1.12
fold induction at 10 µM [3, 11]: 1.14
K = Sestrin induction [3]: 0
E = Potential FOXO3 Activation ([3]; summary score): 0
Percentage of propidium iodide-positive dead cells (no H2O2 stress treatment), at 10 uM [4, 12]: 0.48% ± 0.20%,
L = PARP inhibition [5]: 0

Oc1ccccc1-c1noc(-c2ccccc2O)n1 [O27]
M = Huntington's poly-Q toxicity attenuation [1]: 0
K = Huntington's poly-Q toxicity attenuation [1]: 0
Assay 21: Potential killing effects on HTB-178 tumor cells [2]: YES
E = Potential FOXO3 Activation ([3]; 2-point score): 0
K = Sestrin induction [3]: 1
E = Potential FOXO3 Activation ([3]; summary score): 0
Percentage of propidium iodide-positive dead cells (no H2O2 stress treatment), at 10 uM [4, 12]: 0.50% ± 0.17%,
L = PARP inhibition [5]: 0

O=C(NCc1cccnc1)/C(=C\c1ccc(Br)cc1)S(=O)(=O)c1ccccc1 [Gr-7B]
M = Huntington's poly-Q toxicity attenuation [1]: 0
K = Huntington's poly-Q toxicity attenuation [1]: 0
Assay 21: Potential killing effects on HTB-178 tumor cells [2]: YES
Toxicity / viability of HTB-178 lung tumor cells ([2]; 10 μM, preliminary data): exerted more pronounced toxicity; also recorded: significantly reduce the viability
Potential killing effects on HTB-178 tumor cells, 1st [2]: YES;
E = Potential FOXO3 Activation ([3]; 2-point score): 0
fold induction at 10 µM ([3]; 24 h, Assay 10(m), at 10 uM, qPCR, read-out: Induction of FOXO3-regulated genes: GADD45A normalized fold-change): 2.07
fold induction at 10 µM ([3]; 24 h, Assay 10(m), at 10 uM, qPCR, read-out: Induction of FOXO3-regulated genes: TXNIP normalized fold-change): 0.26
fold induction at 10 µM ([3]; 10 μM, 24 hrs, WI-38 cells, qPCR, normalized to B2M, n = 4, read-out: GADD45A expression, normalized fold change (FOXO3-regulated gene)): 2.07
fold induction at 10 µM ([3]; 10 μM, 24 hrs, WI-38 cells, qPCR, normalized to B2M, n = 4, read-out: TXNIP expression, normalized fold change (FOXO3-regulated gene)): 0.26
fold induction at 10 µM [3, 6]: 1.31
fold induction at 10 µM [3, 7]: 2.07
fold induction at 10 µM [3, 8]: 0.952
fold induction at 10 µM ([3]; fold change, qPCR, WI-38 cells, 10 μM, 24 hrs, read-out: Summary of effects on FOXO3-regulated genes: GADD45A): 2.07
fold induction at 10 µM ([3]; fold change, qPCR, WI-38 cells, 10 μM, 24 hrs, read-out: Summary of effects on FOXO3-regulated genes: TXNIP): 0.26
fold induction at 10 µM [3, 9]: 1.13
fold induction at 10 µM [3, 10]: 1.33
fold induction at 10 µM [3, 11]: 0.262
K = Sestrin induction [3]: 0
E = Potential FOXO3 Activation ([3]; summary score): 0
PI cell-death imaging without H2O2 (indicating potential toxicity) ([4]; Assay 8(k), without H2O2, at 10 uM): YES
PI-positive dead cells under normal conditions ([4]; WI-38, no H2O2, control 0.4±0.2%): 3.6%±0.7%
L = PARP inhibition [5]: 0

COc1cc2c(no[n+]2[O-])n2nnnc12 [O11]
M = Huntington's poly-Q toxicity attenuation [1]: 0
K = Huntington's poly-Q toxicity attenuation [1]: 0
Potential killing effects on HTB-178 tumor cells, 1st [2]: YES;
Induction of at least two of five FOXO3-regulated genes (SOD2, GADD45A, CAT, DDB1, TXNIP) ([3]; 10 μM, 24 hrs, WI-38): significant induction; also recorded: significant, induction; also recorded: induce FOXO3-regulated genes
CAT expression, normalized fold change (FOXO3-regulated gene) [3, 13]: CAT 1.41, fold
DDB1 expression, normalized fold change (FOXO3-regulated gene) [3, 13]: DDB1 1.31, fold
SESN1 expression, normalized fold change (FOXO3-regulated gene) [3, 13]: SESN1 1.77, fold
TXNIP expression, normalized fold change (FOXO3-regulated gene) [3, 13]: TXNIP 1.35, fold
E = Potential FOXO3 Activation ([3]; 2-point score): 0
Induction of FOXO3-regulated genes: CAT normalized fold-change ([3]; Assay 10(m), at 10 uM, qPCR): CAT 1.41, fold-change
Induction of FOXO3-regulated genes: DDB1 normalized fold-change ([3]; Assay 10(m), at 10 uM, qPCR): DDB1 1.31, fold-change
Induction of FOXO3-regulated genes: SESN1 normalized fold-change ([3]; Assay 10(m), at 10 uM, qPCR): SESN1 1.77, fold-change
Induction of FOXO3-regulated genes: TXNIP normalized fold-change ([3]; Assay 10(m), at 10 uM, qPCR): TXNIP 1.35, fold-change
DDB1 Normalized fold change [3, 14]: 1.308 fold change
GADD45A Normalized fold change [3, 14]: 1.431 fold change
SESN1 Normalized fold change [3, 14]: 1.773 fold change
Summary of effects on FOXO3-regulated genes: CAT [3, 15]: CAT 1.41,
Summary of effects on FOXO3-regulated genes: DDB1 [3, 15]: DDB1 1.31,
Summary of effects on FOXO3-regulated genes: SESN1 [3, 15]: SESN1 1.77,
Summary of effects on FOXO3-regulated genes: TXNIP [3, 15]: TXNIP 1.35,
CAT Normalized fold change [3, 16]: 1.410
SOD2 Normalized fold change [3, 16]: 1.143
TXNIP Normalized fold change [3, 16]: 1.346
K = Sestrin induction [3]: 1
E = Potential FOXO3 Activation ([3]; summary score): 0
PI cell-death imaging without H2O2 (indicating potential toxicity) [4]: YES
PI-positive dead cells under normal conditions ([4]; human): 1.9%±0.7%
Percentage of propidium iodide-positive dead cells (no H2O2 stress treatment), at 10 uM ([4]; human): 1.86% ± 0.71%,
L = PARP inhibition [5]: 0
